The values below come from ChEMBL document CHEMBL1132638, “New (sulfonyloxy)piperazinyldibenzazepines as potential atypical antipsychotics: chemistry and pharmacological evaluation” (J Med Chem, 1999).

The structures appear in SMILES notation. pIC50: −log10 of the molar value. Where only a bound is given, the exact number is not on record here.

For orientation: pIC50 means the IC50 on a negative log10 scale, so that one unit is a factor of ten. Low values mean a high IC50, high ones a low IC50. By logP is commonly meant the decadic logarithm of the partition coefficient of the neutral form, usually between octanol and water. Low readings indicate lower lipophilicity, high ones higher lipophilicity. A word on the ED50: it is the dose that gives a 50% effect, or the effect in half of the subjects. Usually IC50 stands for the midpoint of a concentration-inhibition curve. A low value points to higher potency.

Data set [1] has as its target D(3) dopamine receptor (Homo sapiens, UniProt P35462).
Description: Binding affinity towards human Dopamine receptor D3
Data set [2] is described as follows: Partition coefficient (logP). Particulars: octanol/water. The class given is physicochemical.
Data set [3] concerns the target T1, D(4) dopamine receptor (Homo sapiens, UniProt P21917).
T1 sequence (P21917 whole entry): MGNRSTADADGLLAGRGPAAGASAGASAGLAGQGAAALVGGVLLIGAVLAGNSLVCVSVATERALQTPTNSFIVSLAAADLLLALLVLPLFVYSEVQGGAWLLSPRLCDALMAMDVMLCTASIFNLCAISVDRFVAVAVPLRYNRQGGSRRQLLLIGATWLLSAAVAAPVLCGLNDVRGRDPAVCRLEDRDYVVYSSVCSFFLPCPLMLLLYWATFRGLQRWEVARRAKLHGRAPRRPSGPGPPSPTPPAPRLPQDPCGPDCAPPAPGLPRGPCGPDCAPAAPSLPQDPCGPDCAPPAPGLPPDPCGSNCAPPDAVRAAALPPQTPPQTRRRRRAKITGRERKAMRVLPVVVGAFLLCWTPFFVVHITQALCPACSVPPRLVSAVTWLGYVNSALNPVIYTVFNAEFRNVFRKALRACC
The data set can be described thus: Compound was tested in vitro for its binding affinity towards human Dopamine receptor D4.2.

The target in data set [4] is D(2) dopamine receptor (Homo sapiens, UniProt P14416). The data set can be described thus: Compound was tested in vitro for its binding affinity towards human Dopamine receptor D2.
Sequence of D(2) dopamine receptor (P14416 whole entry): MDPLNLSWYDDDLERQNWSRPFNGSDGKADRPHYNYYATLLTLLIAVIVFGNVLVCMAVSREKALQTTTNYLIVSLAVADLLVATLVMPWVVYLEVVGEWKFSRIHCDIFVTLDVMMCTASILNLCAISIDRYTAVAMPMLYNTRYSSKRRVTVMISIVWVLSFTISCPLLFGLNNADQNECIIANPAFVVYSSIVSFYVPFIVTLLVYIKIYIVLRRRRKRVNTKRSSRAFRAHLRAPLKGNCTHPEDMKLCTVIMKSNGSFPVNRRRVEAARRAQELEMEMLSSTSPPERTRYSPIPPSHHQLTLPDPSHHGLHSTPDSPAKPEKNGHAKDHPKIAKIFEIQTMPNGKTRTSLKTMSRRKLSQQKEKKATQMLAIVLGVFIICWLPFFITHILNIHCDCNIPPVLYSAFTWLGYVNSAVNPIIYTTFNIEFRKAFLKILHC
For data set [5], the target named is 5-hydroxytryptamine receptor 2A (Rattus norvegicus, UniProt P14842). The data set can be described thus: biochemical.
Sequence of 5-hydroxytryptamine receptor 2A (P14842 whole entry): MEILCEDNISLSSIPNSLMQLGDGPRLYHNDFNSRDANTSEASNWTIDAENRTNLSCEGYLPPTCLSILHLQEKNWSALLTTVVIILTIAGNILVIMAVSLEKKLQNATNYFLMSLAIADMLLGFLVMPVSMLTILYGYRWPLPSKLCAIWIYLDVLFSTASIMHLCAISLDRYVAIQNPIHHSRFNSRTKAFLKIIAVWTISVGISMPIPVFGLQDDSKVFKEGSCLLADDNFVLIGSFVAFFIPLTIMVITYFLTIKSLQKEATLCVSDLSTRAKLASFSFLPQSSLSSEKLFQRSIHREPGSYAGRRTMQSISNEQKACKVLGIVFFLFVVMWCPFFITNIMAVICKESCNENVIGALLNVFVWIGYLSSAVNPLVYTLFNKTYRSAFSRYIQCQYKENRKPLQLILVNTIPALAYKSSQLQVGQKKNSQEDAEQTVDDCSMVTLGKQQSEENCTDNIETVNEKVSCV
Description: Binding affinity towards 5-hydroxytryptamine 2A receptor from rat frontal cortex using [3H]ketanserin as radioligand
In data set [6] the target is D(1A) dopamine receptor (Rattus norvegicus, UniProt P18901). In words: biochemical.
Sequence of D(1A) dopamine receptor (P18901 whole entry): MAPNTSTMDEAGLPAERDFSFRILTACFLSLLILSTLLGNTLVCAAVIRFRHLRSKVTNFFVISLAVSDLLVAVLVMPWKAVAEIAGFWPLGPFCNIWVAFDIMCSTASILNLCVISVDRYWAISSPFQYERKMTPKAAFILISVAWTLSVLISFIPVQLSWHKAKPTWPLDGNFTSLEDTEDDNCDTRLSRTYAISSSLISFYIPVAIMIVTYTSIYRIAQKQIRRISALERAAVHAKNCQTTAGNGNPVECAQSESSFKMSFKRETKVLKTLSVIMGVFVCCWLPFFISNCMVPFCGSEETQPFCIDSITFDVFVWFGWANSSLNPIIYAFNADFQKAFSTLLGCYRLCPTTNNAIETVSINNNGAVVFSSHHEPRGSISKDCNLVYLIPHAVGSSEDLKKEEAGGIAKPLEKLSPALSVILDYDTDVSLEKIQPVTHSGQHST
Description: Binding affinity towards D1 CNS receptor of rat corpus striatum using [3H]SCH-23390 as radioligand
Data set [7] deals with T2, 5-hydroxytryptamine receptor 2C (Rattus norvegicus, UniProt P08909).
T2 sequence (P08909 whole entry): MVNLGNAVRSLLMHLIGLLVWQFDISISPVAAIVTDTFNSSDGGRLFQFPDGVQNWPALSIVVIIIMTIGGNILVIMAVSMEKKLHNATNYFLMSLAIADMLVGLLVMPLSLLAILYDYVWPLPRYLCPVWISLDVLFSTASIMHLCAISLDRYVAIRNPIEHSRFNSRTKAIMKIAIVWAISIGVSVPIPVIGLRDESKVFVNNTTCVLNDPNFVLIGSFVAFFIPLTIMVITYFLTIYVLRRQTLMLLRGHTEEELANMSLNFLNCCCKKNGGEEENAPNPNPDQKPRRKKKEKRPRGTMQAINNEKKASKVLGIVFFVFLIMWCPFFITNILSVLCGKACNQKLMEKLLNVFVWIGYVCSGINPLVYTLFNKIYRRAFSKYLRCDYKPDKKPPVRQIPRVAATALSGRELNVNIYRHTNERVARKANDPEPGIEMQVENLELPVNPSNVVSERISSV
Description: Binding affinity towards 5-HT2C receptor from rat using [3H]mesulergine as radioligand

Data set [8] relates to Mus musculus. In words: Inhibition of apomorphine induced climbing affects in mice by administering the compound subcutaneously in mice. The class given is functional. The note with it: sc.
Data set [9] deals with Mus musculus. The data set can be described thus: Inhibition of apomorphine induced climbing affects in mice by administering the compound perorally in mice. Type of data set: functional. The note with it: Mus musculus, po; read-out: ED50.
The subject of data set [10] is Rattus norvegicus. In words: Catalepsy percent score in rat by peroral administration of 100 mg/Kg of compound.
The target of data set [11] is T3, Adrenergic receptor alpha-1 (Rattus norvegicus, UniProt P15823+P23944+P43140).
T3 sequence (P15823 whole entry): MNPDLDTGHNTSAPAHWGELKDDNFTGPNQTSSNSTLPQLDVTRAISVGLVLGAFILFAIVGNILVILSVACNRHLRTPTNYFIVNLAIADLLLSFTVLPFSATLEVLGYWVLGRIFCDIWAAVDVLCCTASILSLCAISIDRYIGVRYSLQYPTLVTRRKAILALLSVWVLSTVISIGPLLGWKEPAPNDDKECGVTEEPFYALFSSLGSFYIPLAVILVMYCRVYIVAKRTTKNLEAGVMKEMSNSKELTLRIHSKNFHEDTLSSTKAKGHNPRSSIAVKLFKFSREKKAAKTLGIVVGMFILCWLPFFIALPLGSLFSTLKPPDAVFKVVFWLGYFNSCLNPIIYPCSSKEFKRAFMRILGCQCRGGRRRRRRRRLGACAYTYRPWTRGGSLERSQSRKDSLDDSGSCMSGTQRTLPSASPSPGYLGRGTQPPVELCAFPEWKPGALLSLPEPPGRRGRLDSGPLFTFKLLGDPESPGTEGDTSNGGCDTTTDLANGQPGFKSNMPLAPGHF
T3 sequence (P23944 whole entry): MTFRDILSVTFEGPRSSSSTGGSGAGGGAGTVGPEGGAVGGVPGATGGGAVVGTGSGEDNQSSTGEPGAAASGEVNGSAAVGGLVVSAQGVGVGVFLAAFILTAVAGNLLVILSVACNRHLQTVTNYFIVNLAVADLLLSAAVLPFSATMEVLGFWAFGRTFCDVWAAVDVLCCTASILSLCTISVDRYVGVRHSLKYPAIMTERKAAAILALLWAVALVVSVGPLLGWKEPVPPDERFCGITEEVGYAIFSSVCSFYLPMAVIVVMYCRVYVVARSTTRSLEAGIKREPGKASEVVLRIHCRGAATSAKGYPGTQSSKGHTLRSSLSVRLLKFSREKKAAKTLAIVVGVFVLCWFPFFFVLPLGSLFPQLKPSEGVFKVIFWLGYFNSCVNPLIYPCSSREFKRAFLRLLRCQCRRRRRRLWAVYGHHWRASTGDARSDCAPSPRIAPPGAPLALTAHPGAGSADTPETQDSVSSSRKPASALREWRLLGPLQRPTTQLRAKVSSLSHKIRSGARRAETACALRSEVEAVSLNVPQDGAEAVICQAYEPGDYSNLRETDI
T3 sequence (P43140 whole entry): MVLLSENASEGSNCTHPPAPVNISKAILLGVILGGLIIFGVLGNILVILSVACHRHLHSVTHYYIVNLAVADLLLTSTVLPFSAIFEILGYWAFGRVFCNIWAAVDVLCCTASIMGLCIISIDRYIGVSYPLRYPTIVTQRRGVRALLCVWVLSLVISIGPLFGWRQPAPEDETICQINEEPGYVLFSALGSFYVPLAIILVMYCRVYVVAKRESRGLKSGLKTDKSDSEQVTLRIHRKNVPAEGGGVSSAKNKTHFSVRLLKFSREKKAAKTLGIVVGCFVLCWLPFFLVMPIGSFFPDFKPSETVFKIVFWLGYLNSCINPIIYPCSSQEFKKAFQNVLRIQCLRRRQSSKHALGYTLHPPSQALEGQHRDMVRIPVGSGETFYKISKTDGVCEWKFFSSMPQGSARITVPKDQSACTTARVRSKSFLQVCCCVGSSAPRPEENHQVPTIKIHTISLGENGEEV
The data set can be described thus: Binding affinity towards alpha-1 adrenergic receptor from rat brain membranes using [3H]prazosin as radioligand.

The species named for data set [12] is Rattus norvegicus. The data set can be described thus: Ex vivo accumulation of L-DOPA was measured in striatum of rats.
The target of data set [13] is T1, D(4) dopamine receptor. In words: Binding affinity towards human D4.2 receptor.
Data set [14] concerns the target T4, Muscarinic acetylcholine receptor M1 (Homo sapiens, UniProt P11229).
T4 sequence (P11229 whole entry): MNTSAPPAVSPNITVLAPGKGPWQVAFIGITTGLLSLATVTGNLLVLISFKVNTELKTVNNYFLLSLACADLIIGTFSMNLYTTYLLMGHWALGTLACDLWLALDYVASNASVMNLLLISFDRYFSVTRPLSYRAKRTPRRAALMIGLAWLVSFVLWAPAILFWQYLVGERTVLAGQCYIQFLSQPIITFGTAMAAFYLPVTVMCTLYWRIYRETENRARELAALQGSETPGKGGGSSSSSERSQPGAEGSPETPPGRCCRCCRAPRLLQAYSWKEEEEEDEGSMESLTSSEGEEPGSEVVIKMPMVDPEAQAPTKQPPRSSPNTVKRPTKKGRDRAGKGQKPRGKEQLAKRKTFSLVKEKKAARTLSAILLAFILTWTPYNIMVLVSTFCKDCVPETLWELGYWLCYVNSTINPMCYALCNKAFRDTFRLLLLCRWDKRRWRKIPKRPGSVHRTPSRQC
In words: Inhibition of binding of 1.0 nM [3H]pirenzepine to cloned human Muscarinic acetylcholine receptor M1 expressed in membranes from CHO-K1 cells. Type of data set: cell-based.

The nature of data set [15]: Delta ED50 value by peroral administration (ED50 catalepsy-ED50 Climbing). Type of data set: functional.
The target of data set [16] is Histamine H1 receptor (Rattus norvegicus, UniProt P31390). In words: Binding affinity towards histamine H1 receptor from rat brain membranes using [3H]mepyramine as radioligand.
Sequence of Histamine H1 receptor (P31390 whole entry): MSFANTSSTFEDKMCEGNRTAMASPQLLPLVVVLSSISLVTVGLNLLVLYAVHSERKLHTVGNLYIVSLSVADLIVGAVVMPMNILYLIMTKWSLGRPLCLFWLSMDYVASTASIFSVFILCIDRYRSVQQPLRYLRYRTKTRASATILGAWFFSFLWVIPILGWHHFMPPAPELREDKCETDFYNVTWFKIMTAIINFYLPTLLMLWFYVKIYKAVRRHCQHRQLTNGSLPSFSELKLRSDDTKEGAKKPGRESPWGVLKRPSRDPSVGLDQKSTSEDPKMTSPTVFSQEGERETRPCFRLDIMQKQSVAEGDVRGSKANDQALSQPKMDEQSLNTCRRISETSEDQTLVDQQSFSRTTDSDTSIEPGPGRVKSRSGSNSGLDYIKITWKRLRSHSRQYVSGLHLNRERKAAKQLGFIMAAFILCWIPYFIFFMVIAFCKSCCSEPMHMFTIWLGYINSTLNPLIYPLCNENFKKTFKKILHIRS
Data set [17] is described as follows: Therapeutic ratio by Peroral dose of administration (quotient ED50 catalepsy/ED50 climbing). The class given is ADME, organism-based. The note with it: in vivo, po; read-out: Therapeutic ratio.
The subject of data set [18] is Rattus norvegicus. The data set can be described thus: Compound is measured for inhibition of catalepsy in rat by peroral administration of compound. Type of data set: functional. Particulars: po.

Sequence of D(3) dopamine receptor (P35462 whole entry): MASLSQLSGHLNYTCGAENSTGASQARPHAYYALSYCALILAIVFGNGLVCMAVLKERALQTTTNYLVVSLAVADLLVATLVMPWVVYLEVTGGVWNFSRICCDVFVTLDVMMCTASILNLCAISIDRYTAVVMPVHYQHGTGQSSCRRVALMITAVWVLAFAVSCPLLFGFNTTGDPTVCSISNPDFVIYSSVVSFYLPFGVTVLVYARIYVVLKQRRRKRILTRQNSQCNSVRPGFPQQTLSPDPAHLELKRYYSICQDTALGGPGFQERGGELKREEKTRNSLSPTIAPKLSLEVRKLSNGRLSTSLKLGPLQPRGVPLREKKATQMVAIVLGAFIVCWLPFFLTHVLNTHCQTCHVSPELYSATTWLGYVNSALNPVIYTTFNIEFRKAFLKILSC

`CN1CCN(C2=Nc3ccccc3Oc3ccc(OS(C)(=O)=O)cc32)CC1`: the pIC50 is 6.46 in [1], < 6.00 in data set [3], < 6.00 in data set [4] and 6.64 in data set [5]. Besides, the log partition coefficient (logP) in data set [2] is 1.98.
On to `CN1CCN(C2=Nc3ccccc3Oc3ccc(OS(=O)(=O)C(F)(F)F)cc32)CC1`, for which the pIC50 is 7.54 in [1]; 7.18 in data set [6]; 7.00 in data set [7]; 7.32 in data set [5]; 6.82 in data set [13]; 6.31 in data set [14]. This compound also had a pIC50 in data set [16] of 6.92. Moreover, in [2], the logP turned out to be 3.76. Also, the 50% effective dose (ED50) in [8] was 2.2 mg/kg; in data set [9] it was 1.3 mg/kg; in data set [12] it was 0.7 mg/kg; in data set [18], 28 mg/kg. In addition, the Catalepsy in data set [10] is given as 32%. Also, the IC50 in data set [11] was found to be 27 nM. Further, the “Delta ED50” value in data set [15] is 26.7 mg/kg. In [17], the selectivity ratio stood at 21.5.
